Results reported in patent US20260200897A1, “4-((5-(3-(4-(PYRIDIN-2-YL)CYCLOPENTYL)-1H-PYRAZOL-3-YL)AMINO)-BENZENESULFONAMIDE DERIVATIVES AND SIMILAR COMPOUNDS AS CDK INHIBITORS FOR THE TREATMENT OF CANCER” (BeOne Medicines I GmbH, priority 2023, published 2026).

Experiments:
CDK1/Cyclin B1 [1] = target: T1, CDK1/Cyclin B1 (Homo sapiens, UniProt P06493); experiment: CDK1/Cyclin B1 TR-FRET biochemical assay, 0.015 mM ATP; settings: 0.15 μM Rb (Ser780)-biotin substrate, 120 min reaction, Table 1
Protocol: (§1) Compounds disclosed herein were tested for inhibition of CDK2/Cyclin E1 or CDK1/Cyclin B1 kinase in an assay based on the time-resolved fluorescence-resonance energy transfer (TR-FRET) methodology. The assay was carried out in 384-well low volume black plates in a reaction mixture containing CDK2/Cyclin E1 or CDK1/Cyclin B1, 0.060 mM ATP for CDK2/Cyclin E1 or 0.015 mM ATP for CDK1/Cyclin B1, 0.15 μM Rb (Ser780)-biotin substrate and 0-10 μM compound in buffer containing 50 mM HEPES pH7.0, 0.02% NaN3, 0.01% BSA, 0.1 mM Orthovanadate, 50 mM MgCl2, 1 mM DTT and 0.005% Tween-20. The kinase was incubated with compound for 60 minutes at room temperature and the reaction was initiated by the addition of ATP and Rb (Ser780)-biotin substrate. After reaction at room temperature for 120 minutes, an equal volume of stop/detection solution was added according to the manufacture's instruction (Cisbio Bioassays). The stop/detection solution contained Streptavidin-XL665 and Anti-pRb (Ser780) mAb-Eu Cryptate in Detection buffer (Cisbio Bioassays). Plates were incubated at room temperature for 60 minutes, and the TR-FRET signals (ex337 nm, em665 nm/620 nm) were recorded on a PHERAstar FSX plate reader (BMG Labtech). The inhibition percentage of CDK2/Cyclin E1 or CDK1/Cyclin B1 kinase activity in presence of increasing concentrations of compounds was calculated based on the ratio of fluorescence at 665 nm to that at 620 nm. The IC50 for each compound was derived from fitting the data to the four-parameter logistic equation by Dotmatics.

CDK2/Cyclin E1 [2] = target: T2, CDK2/Cyclin E1 (Homo sapiens, UniProt P24941); experiment: CDK2/Cyclin E1 TR-FRET biochemical assay, 0.060 mM ATP; settings: 0.15 μM Rb (Ser780)-biotin substrate, 120 min reaction, Table 1
Protocol: as §1

CDK1/Cyclin B1 [3] = target: T1, CDK1/Cyclin B1; experiment: CDK1/Cyclin B1 TR-FRET biochemical assay, 1 mM ATP; settings: 0.15 μM Rb (Ser780)-biotin substrate, 90 min reaction, Table 2
CDK2/Cyclin E1 [4] = target: T2, CDK2/Cyclin E1; experiment: CDK2/Cyclin E1 TR-FRET biochemical assay, 1 mM ATP; settings: 0.15 μM Rb (Ser780)-biotin substrate, 90 min reaction, Table 2

T1 sequence (P06493 whole entry): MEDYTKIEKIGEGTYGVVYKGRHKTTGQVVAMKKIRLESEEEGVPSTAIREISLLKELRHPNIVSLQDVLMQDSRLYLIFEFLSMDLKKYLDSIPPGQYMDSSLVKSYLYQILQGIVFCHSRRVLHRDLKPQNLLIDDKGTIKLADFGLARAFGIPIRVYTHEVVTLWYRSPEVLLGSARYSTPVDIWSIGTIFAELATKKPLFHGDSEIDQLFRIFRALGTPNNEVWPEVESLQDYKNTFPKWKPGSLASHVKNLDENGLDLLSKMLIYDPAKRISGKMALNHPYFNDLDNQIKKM
T1 sequence (P14635 whole entry partner): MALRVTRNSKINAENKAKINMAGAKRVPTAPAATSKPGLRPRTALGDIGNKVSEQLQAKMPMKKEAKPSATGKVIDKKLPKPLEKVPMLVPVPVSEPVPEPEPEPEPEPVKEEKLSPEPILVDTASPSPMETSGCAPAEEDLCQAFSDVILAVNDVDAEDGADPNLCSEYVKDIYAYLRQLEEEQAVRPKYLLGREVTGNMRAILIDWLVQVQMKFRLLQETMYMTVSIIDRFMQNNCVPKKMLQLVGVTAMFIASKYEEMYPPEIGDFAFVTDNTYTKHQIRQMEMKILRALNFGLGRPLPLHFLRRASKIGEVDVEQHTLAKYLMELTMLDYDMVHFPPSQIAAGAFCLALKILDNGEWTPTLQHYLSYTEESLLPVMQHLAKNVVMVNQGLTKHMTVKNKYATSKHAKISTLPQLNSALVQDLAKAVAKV

IC50 (CDK1/Cyclin B1 [1])	IC50 (CDK2/Cyclin E1 [2])	IC50 (CDK1/Cyclin B1 [3])	IC50 (CDK2/Cyclin E1 [4])	SMILES
> 10000 nM	2530 nM	–	–	Cc1cc(O[C@@H]2CC[C@H](c3cc(Nc4ccc5c(c4F)CNS5(=O)=O)n[nH]3)C2)n(-c2ccccc2)n1 (relative stereo) [Example 66, cis-4-fluoro-5-((5-(3-((3-methyl-1-phenyl-1H-pyrazol-5-yl)oxy)cyclopentyl)-1H-pyrazol-3-yl)amino)-2,3-dihydrobenzo[d]isothiazole 1,1-dioxide]
7120 nM	764 nM	–	–	CC(C)(C)c1ncccc1O[C@@H]1CC[C@H](c2cc(Nc3ccc4c(c3F)CNS4(=O)=O)n[nH]2)C1 (relative stereo) [Example 45, cis-5-((5-(3-((2-(tert-butyl)pyridin-3-yl)oxy)cyclopentyl)-1H-pyrazol-3-yl)amino)-4-fluoro-2,3-dihydrobenzo[d]isothiazole 1,1-dioxide]
1900 nM	296 nM	–	–	Cn1ccc(O[C@@H]2CC[C@H](c3cc(Nc4ccc5c(c4F)CNS5(=O)=O)n[nH]3)C2)n1 (relative stereo) [Example 64, cis-4-fluoro-5-((5-(3-((1-methyl-1H-pyrazol-3-yl)oxy)cyclopentyl)-1H-pyrazol-3-yl)amino)-2,3-dihydrobenzo[d]isothiazole 1,1-dioxide]
1110 nM	41 nM	–	–	O=S1(=O)Cc2cc(Nc3cc(C4CCC(c5ncc(CO)o5)C4)[nH]n3)ccc2N1 (centres unmarked) [Example 134, 5-((5-(3-(5-(hydroxymethyl)oxazol-2-yl)cyclopentyl)-1H-pyrazol-3-yl)amino)-1,3-dihydrobenzo[c]isothiazole 2,2-dioxide]
2330 nM	55 nM	–	–	O=S1(=O)NCc2c1ccc(Nc1cc([C@H]3CC[C@@H](Oc4cccnc4)C3)[nH]n1)c2F (relative stereo) [Example 39, cis-4-fluoro-5-((5-(3-(pyridin-3-yloxy)cyclopentyl)-1H-pyrazol-3-yl)amino)-2,3-dihydrobenzo[d]isothiazole 1,1-dioxide]
> 10000 nM	> 10000 nM	–	–	O=S1(=O)NCc2c1ccc(Nc1cc([C@H]3CC[C@@H](Oc4ccnn4-c4ccccc4)C3)[nH]n1)c2F (relative stereo) [Example 70, (cis)-4-fluoro-5-((5-(3-((1-phenyl-1H-pyrazol-5-yl)oxy)cyclopentyl)-1H-pyrazol-3-yl)amino)-2,3-dihydrobenzo[d]isothiazole 1,1-dioxide]
2150 nM	54 nM	–	–	O=S1(=O)NCc2c1ccc(Nc1cc([C@H]3CC[C@@H](Oc4n[nH]c5ccccc45)C3)[nH]n1)c2F (relative stereo) [Example 67, cis-5-((5-(3-((1H-indazol-3-yl)oxy)cyclopentyl)-1H-pyrazol-3-yl)amino)-4-fluoro-2,3-dihydrobenzo[d]isothiazole 1,1-dioxide]
3.7 nM	0.7 nM	–	–	CC(C)c1ccnnc1O[C@@H]1CC[C@H](c2cc(Nc3ccc4c(c3F)CNS4(=O)=O)n[nH]2)C1 (relative stereo) [Example 27, cis-4-fluoro-5-((5-(3-((4-isopropylpyridazin-3-yl)oxy)cyclopentyl)-1H-pyrazol-3-yl)amino)-2,3-dihydrobenzo[d]isothiazole 1,1-dioxide]
556 nM	7.6 nM	–	–	CC(C)(C)n1cnnc1O[C@@H]1CC[C@H](c2cc(Nc3ccc4c(c3F)CNS4(=O)=O)n[nH]2)C1 (relative stereo) [Example 59, (cis)-5-((5-(3-((4-(tert-butyl)-4H-1,2,4-triazol-3-yl)oxy)cyclopentyl)-1H-pyrazol-3-yl)amino)-4-fluoro-2,3-dihydrobenzo[d]isothiazole 1,1-dioxide]
> 10000 nM	3440 nM	–	–	CC(C)(C)c1ccnc(O[C@@H]2CC[C@H](c3cc(Nc4ccc5c(c4F)CNS5(=O)=O)n[nH]3)C2)c1 (relative stereo) [Example 47, cis-5-((5-(3-((4-(tert-butyl)pyridin-2-yl)oxy)cyclopentyl)-1H-pyrazol-3-yl)amino)-4-fluoro-2,3-dihydrobenzo[d]isothiazole 1,1-dioxide]
73 nM	8.5 nM	–	–	O=S1(=O)NCc2c1ccc(Nc1cc([C@H]3CC[C@@H](Oc4nnccc4-c4ccccc4)C3)[nH]n1)c2F (relative stereo) [Example 31, cis-4-fluoro-5-((5-(3-((4-phenylpyridazin-3-yl)oxy)cyclopentyl)-1H-pyrazol-3-yl)amino)-2,3-dihydrobenzo[d]isothiazole 1,1-dioxide]
1320 nM	33 nM	–	–	O=S1(=O)NCc2c1ccc(Nc1cc([C@H]3CC[C@@H](Oc4ccsn4)C3)[nH]n1)c2F (relative stereo) [Example 50, cis-4-fluoro-5-((5-(3-(isothiazol-3-yloxy)cyclopentyl)-1H-pyrazol-3-yl)amino)-2,3-dihydrobenzo[d]isothiazole 1,1-dioxide]
1770 nM	214 nM	–	–	O=c1ccsn1[C@H]1CC[C@@H](c2cc(Nc3ccc4c(c3F)CNS4(=O)=O)n[nH]2)C1 (relative stereo) [Example 51, cis-2-(3-(3-((4-fluoro-1,1-dioxido-2,3-dihydrobenzo[d]isothiazol-5-yl)amino)-1H-pyrazol-5-yl)cyclopentyl)isothiazol-3 (2H)-one]
2570 nM	23 nM	–	–	CC(C)(C)c1cnc(C2CCC(c3cc(Nc4ccc5c(c4F)CNS5(=O)=O)n[nH]3)C2)o1 (single isomer, unassigned) [Example 91b, cis-5-((5-(3-(5-(tert-butyl)oxazol-2-yl)cyclopentyl)-1H-pyrazol-3-yl)amino)-4-fluoro-2,3-dihydrobenzo[d]isothiazole 1,1-dioxide]
–	–	> 10000 nM	438 nM	CC(C)(C)c1ccc(C2CCC(c3cc(Nc4ccc5c(c4F)CS(=O)(=O)C5)n[nH]3)C2)o1 (centres unmarked) [Example 176, 5-((5-(3-(5-(tert-butyl)furan-2-yl)cyclopentyl)-1H-pyrazol-3-yl)amino)-4-fluoro-1,3-dihydrobenzo[c]thiophene 2,2-dioxide]
–	–	198 nM	2.8 nM	CC(C)(C)c1cnc(C2CCC(c3cc(Nc4ccc5c(c4F)CS(=O)(=O)C5)n[nH]3)C2)o1 (centres unmarked) [Example 173, 5-((5-(3-(5-(tert-butyl)oxazol-2-yl)cyclopentyl)-1H-pyrazol-3-yl)amino)-4-fluoro-1,3-dihydrobenzo[c]thiophene 2,2-dioxide]
–	–	> 10000 nM	189 nM	CC(C)(O)c1cc(C2CCC(c3cc(Nc4ccc5c(c4F)CS(=O)(=O)N5)n[nH]3)C2)n[nH]1 (centres unmarked) [Example 150, 4-fluoro-5-((5-(3-(5-(2-hydroxypropan-2-yl)-1H-pyrazol-3-yl)cyclopentyl)-1H-pyrazol-3-yl)amino)-1,3-dihydrobenzo[c]isothiazole 2,2-dioxide]
–	–	1320 nM	14 nM	CC(C)c1cnc(C2CCC(c3cc(Nc4ccc5c(c4)CS(=O)(=O)N5C)n[nH]3)C2)o1 (centres unmarked) [Example 143, 5-((5-(3-(5-isopropyloxazol-2-yl)cyclopentyl)-1H-pyrazol-3-yl)amino)-1-methyl-1,3-dihydrobenzo[c]isothiazole 2,2-dioxide]
–	–	> 10000 nM	98 nM	O=S1(=O)NCc2c1ccc(Nc1cc(C3CCC(c4ncc(C5CC5)o4)C3)[nH]n1)c2F (centres unmarked) [Example 116, 5-((5-(3-(5-cyclopropyloxazol-2-yl)cyclopentyl)-1H-pyrazol-3-yl)amino)-4-fluoro-2,3-dihydrobenzo[d]isothiazole 1,1-dioxide]
